US7416876B2, “N-carbobenzyloxy (N-CBZ)-deprotecting enzyme” (Bristol-Meyers Squibb Company, priority 2001, dated 2008)

Tests used:
[1] = test system: CBZ-deprotecting enzyme (cell extracts of Sphingomonas paucimobilis ATCC 202027); assay: CBZ-deprotection using cell extract; assay type: biochemical; settings: 42° C., 18-20 hours, HPLC
Description: (§1) HPLC analysis was performed using a Hewlett-Packard (HP) 1090 instrument with a Vydac C-18 reverse phase column. The mobile phase solvent A containing 0.1% trifluoroacetic acid (TFA) in water and solvent B containing 0.1% TFA in 70% acetonitrile: 30% water. The following gradient of solvent A and B was used for the separation of substrates and products:
(§2) 0-15 min: 50% B,15-25 min: 100% B, 25-26 min: 0% B, and 26-30 min: 0% B. The flow rate was 1 mL/min. The column temperature was ambient, and the detection wavelength was at 215 nm. Under these conditions, the retention times for Compound A, Compound B, CBZ-L-Phenylalanine and L-Phenylalanine are 15.48 min., 7.28 min., 16.99 min. and 7.35 min., respectively. All other CBZ-containing compounds were also analyzed using these conditions.
Preparation of cell extracts were carried out at 4-7° C. Cells were washed with 50 mM potassium phosphate buffer, pH 7.0, and the washed cells (100 g) were suspended in 500 mL of buffer A (50 mM phosphate buffer, pH 7.0 containing 10% glycerol, and 2 mM DTT). To the cell suspensions, 1 mM phenylmethylsulfonyl fluoride (PMSF) solution in isopropanol was added. Cell suspensions (20% W/V, wet cells) were passed through a Microfluidizer (Microfluidics, Inc) at 12,000 psi (two passages) and disintegrated cells were centrifuged at 25,000×g for 30 min at 4° C. The supernatant solution obtained after centrifugation is referred to as cell extract.
The cell extracts was used in deprotecting the CBZ-group from various compounds. It was useful in deprotecting CBZ-groups in various processes. Various D and L-CBZ-protected amino acids were incubated with the cell extract at 42° C. for 18 -20 hours. The reactions were stopped by addition of 2 volumes of 50% acetonitrile containing 0.4% trifluro acetic acid (TFA). The results shown in table 2 indicate that the enzyme is specific in hydrolyzing the CBZ-group from CBZ-protected L-amino acids.

[2] = test system: recombinant N-CBZ-deprotecting enzyme; assay: Deprotection with recombinant enzyme (cell extract from E. coli BL21 (DE3)(pBMS2000-cbz)); assay type: biochemical, Sphingomonas paucimobilis; settings: 0.5 mg substrate, 0.5 ml cell extract, 28° C., 1 hr, HPLC
Description: The reaction contained 0.5 mg of CBZ-L-phe and 0.5 ml of cell extract from E. coli BL21 (DE3)(pBMS2000-cbz) that expressed the deprotecting enzyme. Preparation of cell extract was as follows: 2 g of recombinant cells were suspended in 10 mL buffer A (50 mM phosphate buffer, pH 7.5, 1 mM EDTA), sonicated for 2 minutes (20 seconds pulse on and 30 seconds pulse off) using a model 550 Sonic Dismembrator from Misonix Inc., Farmingdale, N.Y. The disintegrated cells were centrifuged for 15 min at 8000 rpm at 4° C. and the resulting supernatant, referred to as a cell extract, was used for these studies. The reactions were carried out in a culture tube at 28° C. After 1 hr, samples were quenched with 1 ml of acetonitrile and analyzed by HPLC (described earlier).

CBZ-deprotecting enzyme = assay: Deprotection of CBZ-containing compounds with purified CBZ-deprotecting enzyme; assay type: biochemical, Sphingomonas paucimobilis; settings: for % Conversion: purified enzyme
Description: Compound A or CBZ-phenylalanine at 0.5mg was incubated with 0.4 mL of cell extract/fractions in 50 mM phosphate buffer, pH 7 at 45° C. for 18 hours. The reaction is stopped by the addition 1 ml of 50% acetonitrile containing 0.4% TFA. The samples were filtered and analyzed by HPLC for product and starting material. All the purification steps were carried out at room temperature. The purification of the enzyme was carried out using CBZ-L-phenylalanine as the substrate. The cell extract, prepared as above, was batch adsorbed with DEAE-cellulose (pre-equilibrated with buffer A) for 2 hours. The follow-through, which contained the active enzyme, was precipitated with ammonium sulfate (516 g/L) with constant stirring for 2 hours. The resulting precipitate obtained by centrifugation (15,000 rpm at 4° C.) was solubilized in buffer A containing 1M ammonium sulfate, loaded on to phenylsepharose (20 mL column which was pre-equlibriaiated with buffer A containing 1M ammonium sulfate). The column was sequentially washed with the buffer A containing 1M ammonium sulfate, 0.5M ammonium sulfate and 0.2M ammonium sulfate. Finally, the enzyme was eluted with buffer A. The fractions containing active enzyme were pooled (30 mL) and concentrated with Amicon PM-10 membrane (8 mL). The enzyme was then loaded on to S-200 gel-filtration column (400 mL column). The enzyme was eluted with buffer A with a flow rate of 0.8 mL/min. With these steps the enzyme was purified more than 150-fold with a specific activity of 13.9 units/mg protein (table 3). The unit is defined as μmole of product formed/min/mg of protein. The enzyme is a […] protein with a molecular weight of 154,000 daltons with a subunit molecular weight of 45,000 daltons, as determined by SDS-PAGE. The purified enzyme prepared as described in this section has been used to deprotect CBZ-containing compounds as shown in table 4.

[3] = test system: Sphingomonas paucimobilis; assay: Biotransformation (CBZ deprotection) using whole cells; assay type: cell-based; settings: whole cells grown in medium B with 25 mg substrate, 28° C., 48 hours, HPLC
Description: In this process, the Sphingomonas paucimobilis was grown in 25 mL of medium B containing 25 mg of substrate (Compound A or CBZ-L-Phenylalanine) in a 250-mL flask. The flask was incubated at 28° C. and 250 rpm on a shaker. After 48 hours of biotransformation, the cells were removed by centrifugation. The supernatant containing the product [4S-(4α,7α,10aβ)]-Octahydro-5-oxo-4-amino-7H-pyrido-[2,1-b] [1,3]thiazepine-7-carboxylic acid, methyl ester (Compound B) or L-Phenylalanine was analyzed by HPLC.
as §1, §2

O=C(N[C@@H](Cc1ccccc1)C(=O)O)OCc1ccccc1 [CBZ-L-Phenylalanine, N-α-CBZ-L-phenylalanine]
% Conversion [1]: 100%
deprotection of the substrate [2]: complete deprotection
% Conversion (CBZ-deprotecting enzyme): 100%
% Conversion [3]: 100%

COC(=O)[C@@H]1CCC[C@@H]2SCC[C@H](NC(=O)OCc3ccccc3)C(=O)N21 [Compound A, [4S-(4α,7α, 10aβ)]-Octahydro-5-oxo-4-[[(phenylmethoxy)carbonyl]amino]-7H-pyrido-[2,1-b] [1,3]thiazepine-7-carboxylic acid, methyl ester]
% Conversion [1]: 95%
% Conversion (CBZ-deprotecting enzyme): 100%
% Conversion [3]: 100%

CC(C)C[C@@H](NC(=O)OCc1ccccc1)C(=O)O [N-α-CBZ-D-Leucine]
% Conversion [1]: 1.2%

O=C(O)[C@H]1CCCN1C(=O)OCc1ccccc1 [N-α-CBZ-D-Proline]
% Conversion [1]: 0%

O=C(N[C@H](Cc1ccccc1)C(=O)O)OCc1ccccc1 [N-α-CBZ-D-phenylalanine]
% Conversion [1]: 0%

O=C(N[C@H](Cc1ccc(O)cc1)C(=O)O)OCc1ccccc1 [N-α-CBZ-D-tyrosine]
% Conversion [1]: 1.58%

CC(C)C[C@H](NC(=O)OCc1ccccc1)C(=O)O [N-α-CBZ-L-Leucine]
% Conversion [1]: 100%

NCCCC[C@H](NC(=O)OCc1ccccc1)C(=O)O [N-α-CBZ-L-Lysine, N-α-CBZ-L-lysine]
% Conversion [1]: 52%

O=C(O)[C@@H]1CCCN1C(=O)OCc1ccccc1 [N-α-CBZ-L-Proline]
% Conversion [1]: 100%

O=C(N[C@@H](Cc1ccc(O)cc1)C(=O)O)OCc1ccccc1 [N-α-CBZ-L-tyrosine]
% Conversion [1]: 100%

O=C(NCCCC[C@H](NC(=O)OCc1ccccc1)C(=O)O)OCc1ccccc1 [N-α-ε-(CBZ)2-L-Lysine]
% Conversion [1]: 24%

N[C@H](CCCCNC(=O)OCc1ccccc1)C(=O)O [N-ε-CBZ-D-Lysine]
% Conversion [1]: 7%

O-α-CBZ-L-tyrosine
% Conversion [1]: 100%

B1: CBZ-deprotecting enzyme: enzyme purified from Sphingomonas paucimobilis ATCC 202027 that removes CBZ from protected amines and alcohols; SEQ ID NO:2 (protein, listed as Sphingomonas paucimobilis)
chain: MVQPTPTPQSELPGLIARDMEGLMTLYRDLHANPELSLQEVNTAAKLAKRLKAMKFDVTEKVGGTGVVAVMKNGSGPVLLIRADMDGLPVVEQTGLDFASKVRTKTPEGVETGVMHACGHDTHMTAFIETAKLLSSQKDKWKGTLVMILQPAEEVGKGARDMLEDGLYTRFPRPTHAIAFHDAANLQAGVVGYTPGYALANVDSVDIVVKGLGGHGAYPQTTRDPIVLGSRIVTSLQTLVSREQDPQDPAVVTVGSFQAGAKHNIIPDQALLLLTVRSYSDETRAKLIKGIERIARGEAIAAGVPDDKMPVVSVKDEFTPSTYNPPEFAEQMGALLKGHFAEGRVVKTPAVMGGEDFGRFYRADKSINSFIFWVGGVPADKMAAAQAGQITLPSLHSPFWAPEADKVIATASEAMTVLAMDILKKD
specific activity (CBZ-deprotecting enzyme; purified enzyme after S-200 gel filtration, CBZ-L-phenylalanine as substrate): 13.9 units/mg protein
